Experiments:
[1] = target: Luciferin 4-monooxygenase (Photinus pyralis, UniProt P08659)
Description: GSK_PKIS: Inhibition of Firefly Luciferase (Data from PubChem: AID 652016) [NIH NCATS]

[2] = target: T1, Coelenterazine h 2-monooxygenase (Renilla reniformis, UniProt P27652)
T1 sequence (P27652 whole entry): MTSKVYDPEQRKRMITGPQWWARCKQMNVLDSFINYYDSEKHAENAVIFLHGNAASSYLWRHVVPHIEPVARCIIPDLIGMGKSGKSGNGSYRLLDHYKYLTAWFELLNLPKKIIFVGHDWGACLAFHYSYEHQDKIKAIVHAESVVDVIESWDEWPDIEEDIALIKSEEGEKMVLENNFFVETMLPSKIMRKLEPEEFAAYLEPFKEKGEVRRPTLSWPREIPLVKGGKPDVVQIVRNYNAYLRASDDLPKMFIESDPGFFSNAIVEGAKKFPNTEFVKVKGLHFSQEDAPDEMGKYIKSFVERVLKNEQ
Description: GSK_PKIS: Inhibition of Sea Pansy Luciferase (Data from PubChem: AID 652015) [NIH NCATS]

Luciferin 4-monooxygenase, sequence (P08659 whole entry): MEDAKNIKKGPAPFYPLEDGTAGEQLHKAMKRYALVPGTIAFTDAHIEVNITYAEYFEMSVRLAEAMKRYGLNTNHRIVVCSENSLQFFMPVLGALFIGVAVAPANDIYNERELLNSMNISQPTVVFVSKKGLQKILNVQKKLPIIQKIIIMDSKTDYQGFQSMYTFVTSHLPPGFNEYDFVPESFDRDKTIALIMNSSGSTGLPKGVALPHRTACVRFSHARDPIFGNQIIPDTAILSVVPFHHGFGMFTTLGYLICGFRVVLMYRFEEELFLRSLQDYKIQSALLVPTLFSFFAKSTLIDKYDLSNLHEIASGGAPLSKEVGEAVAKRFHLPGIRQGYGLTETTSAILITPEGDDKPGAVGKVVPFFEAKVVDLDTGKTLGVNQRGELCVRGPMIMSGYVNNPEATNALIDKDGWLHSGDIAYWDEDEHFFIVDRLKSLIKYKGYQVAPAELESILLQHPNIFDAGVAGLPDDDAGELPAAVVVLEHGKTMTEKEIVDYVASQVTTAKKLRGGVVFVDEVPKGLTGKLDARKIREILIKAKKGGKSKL

Row | SMILES | AC50 ([1]; read-out: AC50) [µM] | AC50 [2] | AC50 [1] | AC50 ([2]; read-out: AC50) [µM]
1 | NS(=O)(=O)c1ccc(Nc2cc(-c3cccc(O)c3)n[nH]2)cc1 [GW831090X] | 20.6 | Phenotype: Inactive; Curve_Description: None | – | –
2 | COc1ccc(-c2nn3ncccc3c2-c2ccnc(Nc3ccc4c(c3)OCCO4)n2)cc1 [GW827106X] | – | Phenotype: Inactive; Curve_Description: None | Phenotype: Inactive; Curve_Description: None | –
3 | COC(=O)Nc1nc2ccc(S(=O)(=O)c3ccc(NC(=O)Nc4cc(C(F)(F)F)ccc4F)cc3)cc2[nH]1.Cl [GW680908A] | – | Phenotype: Inactive; Curve_Description: None | Phenotype: Inactive; Curve_Description: None | –
4 | Fc1ccc(-c2nn3ncccc3c2-c2ccnc(Nc3ccc4c(c3)OCCO4)n2)cc1 [GW827099X] | 18.3 | Phenotype: Inactive; Curve_Description: None | – | –
5 | Cc1nn(C)c2cc(N(C)c3ccnc(Nc4cccc(S(N)(=O)=O)c4)n3)ccc12.Cl [GW770220A] | – | Phenotype: Inactive; Curve_Description: None | Phenotype: Inactive; Curve_Description: None | –
6 | CCn1c(-c2nonc2N)nc2cncc(C(=O)N3CC[C@H](N)C3)c21.Cl | – | Phenotype: Inactive; Curve_Description: None | Phenotype: Inactive; Curve_Description: None | –
7 | FC(F)(F)c1ccc(-c2nn3ncccc3c2-c2ccnc(Nc3ccc4c(c3)OCCO4)n2)cc1 [GW828525X] | – | Phenotype: Inactive; Curve_Description: None | Phenotype: Inactive; Curve_Description: None | –
8 | COC(=O)Nc1nc2ccc(Oc3ccc(NC(=O)Nc4cc(C(F)(F)F)ccc4F)cc3)cc2s1.Cl [GW693917A] | 13 | Phenotype: Inactive; Curve_Description: None | – | –
9 | CCn1c(-c2nonc2N)nc2ccccc21 [GW549034X] | – | Phenotype: Inactive; Curve_Description: None | Phenotype: Inactive; Curve_Description: None | –
10 | Cc1nnc(-c2ccc(C)c(-c3ccc(C(=O)NCc4ccc(Cl)cc4)cc3)c2)o1 [GW708893X] | – | Phenotype: Inactive; Curve_Description: None | Phenotype: Inactive; Curve_Description: None | –
11 | CN(c1ccc(NC(=O)NCCN2CCOCC2)cc1)c1ccnc(Nc2ccc(CS(C)(=O)=O)cc2)n1.Cl [GW830365A] | 20.6 | Phenotype: Inactive; Curve_Description: None | – | –
12 | CC(C)(CO)CNC(=O)c1ccc2c(c1)/C(=N/Nc1ccc(S(N)(=O)=O)cc1)C(=O)N2 [GW301784X] | 41.1 | Phenotype: Inactive; Curve_Description: None | – | –
13 | NC(=O)c1sc(-n2cnc3ccc(C(F)(F)F)cc32)cc1OCc1ccccc1Br [GW853606X] | – | Phenotype: Inactive; Curve_Description: None | Phenotype: Inactive; Curve_Description: None | –
14 | COc1ccc2[nH]c3c4[nH]c5ccc(OC)cc5c4c4c(c3c2c1)C(=O)NC4=O [GW296115X] | – | – | Phenotype: Inactive; Curve_Description: None | 25.9
15 | COc1ccc(-c2nn3ncccc3c2-c2ccnc(Nc3cccc(C(F)(F)F)c3)n2)cc1 [GW827105X] | – | Phenotype: Inactive; Curve_Description: None | Phenotype: Inactive; Curve_Description: None | –
16 | c1cc(-c2cnn3nc(N4CCOCC4)ccc23)nc(NC2CC2)n1 [GW708336X] | 4.61 | Phenotype: Inactive; Curve_Description: None | – | –
17 | Cl.[O-][S+]1CCN(Cc2ccc(-c3ccc4ncnc(Nc5ccc(OCc6ccccc6)c(F)c5)c4c3)o2)CC1 [GW576924A] | 16.3 | Phenotype: Inactive; Curve_Description: None | – | –
18 | CN(C)C(=O)O[C@H]1CN[C@H](C#Cc2cc3ncnc(Nc4ccc(OCc5cccc(F)c5)c(Cl)c4)c3s2)C1 [GSK-182497A] | 29.1 | Phenotype: Inactive; Curve_Description: None | – | –
19 | Cc1c2ccc(N(C)c3ccnc(Nc4cccc(S(N)(=O)=O)c4)n3)cc2nn1C [GW771127A] | 13 | – | – | 18.3
20 | CS(=O)(=O)Nc1ccc(-c2ccc3c(NC(=O)C4CC4)n[nH]c3c2)cc1 | 20.6 | Phenotype: Inactive; Curve_Description: None | – | –
21 | Fc1cccc(COc2ccc(Nc3ncnc4sc(-c5cccs5)cc34)cc2Cl)c1 [GW684626B] | – | Phenotype: Inactive; Curve_Description: None | Phenotype: Inactive; Curve_Description: None | –
22 | CCn1c(-c2nonc2N)nc2ccc(F)cc21 [GW785404X] | – | Phenotype: Inactive; Curve_Description: None | Phenotype: Inactive; Curve_Description: None | –
23 | COc1ccc(C2=C(N3CCc4ccccc43)C(=O)NC2=O)cc1 | – | – | Phenotype: Inactive; Curve_Description: None | 20.6
24 | CCc1ccc(Oc2nccc(-c3c(-c4ccc(F)cc4)ncn3C3CCNCC3)n2)cc1 | – | Phenotype: Inactive; Curve_Description: None | Phenotype: Inactive; Curve_Description: None | –
25 | COc1cc(Nc2nccc(-c3cnn4ncccc34)n2)cc(OC)c1 [GW801372X] | – | Phenotype: Inactive; Curve_Description: None | Phenotype: Inactive; Curve_Description: None | –

Row | SMILES | AC50 ([1]; read-out: AC50) [µM] | AC50 [2] | AC50 [1] | AC50 ([2]; read-out: AC50) [µM]
26 | Cc1ccc(C(=O)NC(C)C)cc1-c1ccc(C(=O)NCC2CC2)cc1 [GW785974X] | – | Phenotype: Inactive; Curve_Description: None | Phenotype: Inactive; Curve_Description: None | –
27 | Fc1ccc(Nc2nccc(-c3c(-c4ccc(C(F)(F)F)cc4)nn4ncccc34)n2)cc1F [GW828529X] | – | Phenotype: Inactive; Curve_Description: None | Phenotype: Inactive; Curve_Description: None | –
28 | Cl.N#Cc1cccc(Nc2ncc(-c3ccccc3)o2)c1 [GW627834A] | 1.03 | Phenotype: Inactive; Curve_Description: None | – | –
29 | COc1cc(C=NNc2ncnc3c2cnn3Cc2ccccc2)ccc1O [GW643971X] | 29.1 | Phenotype: Activator; Curve_Description: None | – | –
30 | CCOc1nccc2c1nc(-c1nonc1N)n2CC | – | Phenotype: Inactive; Curve_Description: None | Phenotype: Inactive; Curve_Description: None | –
31 | Nc1nc(-c2ccc(F)cc2)c(-c2ccc3ncccc3n2)s1 [GW785804X] | – | Phenotype: Inactive; Curve_Description: None | Phenotype: Inactive; Curve_Description: None | –
32 | Clc1ccc(CNc2nccc(-c3cnn4ncccc34)n2)cc1 [GW781673X] | – | Phenotype: Inactive; Curve_Description: None | Phenotype: Inactive; Curve_Description: None | –
33 | O=S(=O)(CCOCc1ccc(-c2ccc3ncnc(Nc4ccc(OCc5cccc(F)c5)c(Cl)c4)c3c2)o1)c1ccccc1 [GW615311X] | – | – | Phenotype: Inactive; Curve_Description: None | 46.1
34 | O=C1NC(=O)C(c2cccc(Cl)c2)=C1Nc1ccc(O)c(Cl)c1 | – | – | Phenotype: Inactive; Curve_Description: None | 36.6
35 | COc1ccc(-c2ccc3c(NC(=O)C4CC4)n[nH]c3n2)cc1 | 2.31 | Phenotype: Inactive; Curve_Description: None | – | –
36 | COc1ccc(-c2oc3ncnc(N)c3c2-c2ccc(NC(=O)Nc3cc(C(F)(F)F)ccc3F)cc2)cc1.Cl [GW768505A] | – | Phenotype: Inactive; Curve_Description: None | Phenotype: Inactive; Curve_Description: None | –
37 | O=C(Nc1n[nH]c2cc(-c3ccc(F)cc3)ccc12)C1CC1 | 16.3 | Phenotype: Inactive; Curve_Description: None | – | –
38 | CC1=C(C(=O)Nc2ccc3[nH]ncc3c2)C(c2ccc3ccccc3c2)CC(=O)N1 (stereo not given) [GSK-270822A] | 41.1 | Phenotype: Inactive; Curve_Description: None | – | –
39 | c1ccc(Cc2nc3ccc(Nc4ncnc5ccccc45)cc3[nH]2)cc1 | 16.3 | – | – | 18.3
40 | Cc1ccc(C(=O)NC2CC2)cc1-c1ccc2[nH]ncc2c1 [GW820759X] | 18.3 | – | – | 20.6
41 | CCn1c(-c2nonc2N)nc2c(C#CC(C)(C)O)nc(OC[C@H](N)c3ccccc3)cc21 [GSK-943949A] | – | – | Phenotype: Inactive; Curve_Description: None | 29.1
42 | COc1cc2ncnc(Nc3ccc4c(cnn4Cc4ccccc4)c3)c2cc1OC.Cl [GW282449A] | – | Phenotype: Inactive; Curve_Description: None | Phenotype: Inactive; Curve_Description: None | –
43 | CS(=O)(=O)CCNCc1ccc(-c2ccc3ncnc(Nc4ccc(OCc5cccc(C(F)(F)F)c5)cc4)c3c2)o1.Cl [GW567808A] | – | Phenotype: Activator; Curve_Description: None | Phenotype: Inactive; Curve_Description: None | –
44 | CC(C)c1ccc(-c2cc(-c3c[nH]nc3-c3ccccn3)ccn2)cc1 [GW682841X] | – | – | Phenotype: Activator; Curve_Description: None | 1.46
45 | Cc1cc(O)cc(C)c1/C=C/c1cncc(-c2nn[nH]n2)c1.Cl [GW441806A] | 29.1 | Phenotype: Inactive; Curve_Description: None | – | –
46 | c1ccc(-c2n[nH]cc2-c2ccnc(-c3ccc(OCCN4CCOCC4)cc3)c2)nc1 [GW695874X] | – | Phenotype: Inactive; Curve_Description: None | Phenotype: Inactive; Curve_Description: None | –
47 | Cc1nnc(-c2cccc(-c3ccc(C(=O)NCC4CC4)cc3)c2)o1 [GW734508X] | – | – | Phenotype: Inactive; Curve_Description: None | 36.6
48 | COc1ccc(-c2nn3ncccc3c2-c2ccnc(Nc3ccc(F)c(F)c3)n2)cc1 [GW827396X] | – | Phenotype: Inactive; Curve_Description: None | Phenotype: Inactive; Curve_Description: None | –
49 | COc1cc2c(cc1Nc1nc(Nc3cccc(F)c3C(N)=O)c3cc[nH]c3n1)N(C(=O)CN1CCN(C(C)C)CC1)CC2 [GSK-1751853A] | – | – | Phenotype: Inactive; Curve_Description: None | 36.6
50 | COc1ccc(CNC(=O)c2ccc(-c3cc(-c4nnc(C)o4)ccc3C)cc2)cc1 [GW701032X] | – | Phenotype: Inactive; Curve_Description: None | Phenotype: Inactive; Curve_Description: None | –

Reference: ChEMBL document CHEMBL2303647, “Data associated with the publication PLoS ONE, 8(3), e57888, (2013) PMID: 23505445. Compounds: GSK PKIS; Assays: NIH NCATS”
